{"source": "patent US20250295795A1", "about": "“PEPTIDE” (priority 2021, published 2025)", "key": {"HeLa cells": {"system": "HeLa cells", "test": "Membrane integrity / porosity: propidium iodide uptake after trimer treatment", "format": "cell-based, human", "settings": "1 μM trimer; 40 μM PI added 20 min after trimer", "method": "To assess membrane integrity, 40 μM propidium iodide (PI; a cell impermeable dye), was added to Hela cells 20 min after the addition of the peptide trimer."}, "CHO cells": {"system": "CHO cells", "test": "Live cell confocal microscopy: cellular uptake and intracellular distribution of Tat conjugates in CHO cells", "format": "cell-based, Chinese hamster", "settings": "1 μM, 60 min, serum-free DMEM, post-wash", "method": "The cellular uptake and intracellular distribution of Tat-trimers and monomeric controls was investigated by performing live cell confocal microscopy of HeLa (human, cervical cancer) and CHO (Chinese hamster, epithelial) cells incubated with Tat conjugates (1 μM) in serum-free DMEM (60 min). Following washing, images were acquired using a Zeiss 780 confocal microscope fitted with an incubation chamber (FIG. 2). In accordance with observations that free Tat in the cytosol readily enters the nucleus and strongly binds to nucleoli,^29 homogenous staining of cytoplasm and nucleoli were considered as indicative of cells having accumulated free conjugate, not confined to endosomes, for quantification purposes. […] The uptake and intracellular distribution of tri-Tat A is similar in live Hela and CHO cells (FIG. 2b,d,e).\nHeLa and CHO cells were cultured in DMEM supplemented with 10% FBS and penicillin/streptomycin. For post-wash experiments, Tat conjugate was added to the cells in serum free medium, cells incubated at 37° C. in an atmosphere of 5% CO2, culture medium removed at the desired time point, cells washed and transferred to the microscope for imaging. For time course or pre-wash experiments, cells were transferred to the microscope (incubation chamber at 37° C., 5% CO2) and Tat conjugate added directly to cell medium and cells imaged at desired time points. Co-delivery experiments were conducted by adding peptide trimer immediately followed by cargo into serum free medium. Samples were visualised using a Zeiss LSM 780 inverted confocal microscope fitted with a XLmultiS1 incubation chamber and Plan-Apochromat 63×/1.40 Oil DIC M27 objective. Images were analysed using ImageJ software. Digital adjustments and image processing are consistent throughout the manuscript, unless otherwise stated in the figure legend. Statistical analysis was carried out using GraphPad Prism 7 software and all data used for statistical analysis consists of measurements from distinct cells. Where applicable a parametric, unpaired, two-tailed t-test was used for statistical testing."}, "[1]": {"test": "MTT assay of metabolic activity (cell viability)", "format": "cell-based", "settings": "human, HeLa cells, 1 μM for 60 min", "method": "Toxicity is a concern with potent intracellular delivery agents. We used an MTT assay to measure the metabolic activity of Hela cells treated with 1 μM tri-Tat A or tri-cTat B for 60 min (FIG. 4d). […] Tri-Tat A is slightly more toxic, which is consistent with the observation that the trimer forms membrane pores (cells 84.4% viable, 4 h post-treatment; 80.2% viable, 3 days post-treatment). The favourable uptake mechanism and low toxicity of tri-cTat B lead us to investigate this agent for its potential to transport biomacromolecular cargos into cells."}}, "note": "“Also recorded” adds a separate entry of the source."}
{"smiles": "N=C(N)NCCC[C@@H]1NC(=O)[C@H](CCCNC(=N)N)NC(=O)[C@H](CCCNC(=N)N)NC(=O)[C@H](CCC(N)=O)NC(=O)[C@H](CCCNC(=N)N)NC(=O)[C@H](CCCNC(=N)N)NC(=O)[C@H](CCCCN)NC(=O)[C@H](CCCCN)NC(=O)[C@H](CCCNC(=N)N)NC(=O)[C@H](CCCCn2cc(COCC(COCc3cn(CCCCCCNC(=O)c4ccc5c(c4)C(=O)OC54c5ccc(N)c(S(=O)(=O)O)c5Oc5c4ccc(N)c5S(=O)(=O)O)nn3)(COCc3cn(CCCC[C@@H]4NC(=O)CC[C@@H](C(N)=O)NC(=O)[C@H](CCCNC(=N)N)NC(=O)[C@H](CCCNC(=N)N)NC(=O)[C@H](CCCNC(=N)N)NC(=O)[C@H](CCC(N)=O)NC(=O)[C@H](CCCNC(=N)N)NC(=O)[C@H](CCCNC(=N)N)NC(=O)[C@H](CCCCN)NC(=O)[C@H](CCCCN)NC(=O)[C@H](CCCNC(=N)N)NC4=O)nn3)COCc3cn(CCCC[C@@H]4NC(=O)CC[C@@H](C(N)=O)NC(=O)[C@H](CCCNC(=N)N)NC(=O)[C@H](CCCNC(=N)N)NC(=O)[C@H](CCCNC(=N)N)NC(=O)[C@H](CCC(N)=O)NC(=O)[C@H](CCCNC(=N)N)NC(=O)[C@H](CCCNC(=N)N)NC(=O)[C@H](CCCCN)NC(=O)[C@H](CCCCN)NC(=O)[C@H](CCCNC(=N)N)NC4=O)nn3)nn2)NC(=O)CC[C@@H](C(N)=O)NC1=O", "note": "(stereo partly shown) [tri-cTat B]", "values": [{"measurement": "propidium iodide (PI) uptake / pore formation", "setting": "HeLa cells", "value": "does not form pores in the plasma membrane; also recorded: PI negative"}, {"measurement": "cellular uptake and intracellular distribution", "setting": "CHO cells", "value": "taken up into the cytosol and nucleoli"}, {"measurement": "viability at 4 h, 1 µM", "setting": "[1]; 4 h post-treatment", "value": 94.3, "unit": "%"}, {"measurement": "viability at 72 h, 1 µM", "setting": "[1]; 3 days post-treatment", "value": 96.5, "unit": "%"}]}
